Consider three compounds from patent US11723907B2, “Anti-aging compounds” (THE CLEVELAND CLINIC FOUNDATION, priority 2017, dated 2023).

The conditions of series [1]: cited from earlier work.
Series [2] concerns cytochrome c. The series is described as follows: Enzymatic NAD(P)H oxidation / cytochrome c reduction catalyzed by N2N1. Format: biochemical. Particulars: inhibitor 2 μM. As for the experimental part:
FIGS. 5A-5C provide graphs and schemes relating to the N2N1 mechanism of action. […] No specific substrate was added into reaction mix, therefore, it was concluded that reaction was driven by slow reduction of molecular oxygen dissolved into reaction buffer. The hypothetical reaction equation is shown below reaction plots. (B) The proposed molecular mechanism of possible substrate reduction catalyzed by N2N1. (C) Addition of peroxide or cytochrome c into reaction allowed us to identify cytochrome c as the most preferable substrate for the N2N1 driven enzymatic reaction. […] It was interesting to notice that addition of cytochrome c to non-enzymatic reaction reduced the reaction rate. […] The hypothetical reaction equation is show below the reaction plots.
FIGS. 6A-6B provide graphs showing the enzymatic reduction of cytochrome C catalyzed by N2N1 can utilize both NADH and NADPH. (A) The enzymatic electrons transfer from NADH to cytochrome c driven by N2N1 was monitored by decrease in absorption at 340 nm (NADH) and increase in absorption at 550 nm (cytochrome c). The absorbance spectrum was screened at the end of the reaction (˜1 hour). The hypothetical reaction equation is shown below the reaction plots. (B) The enzymatic electrons transfer from NADPH to cytochrome c driven by N2N1 was monitored by decrease in absorption at 340 nm (NADPH) and increase in absorption at 550 nm (cytochrome c). The hypothetical reaction equation is shown below the reaction plots.
To evaluate possible participation of mitochondrial NADH oxidoreductases, in particular Complex I and III, the […] was run in the presence of rotenone or antimycin A (2 μM). The acquired data allowed us to specify the most probable candidate that carry out the transfer electrons from NAD(P)H to cytochrome C driven by N2N1. The NQO1 protein would be the most likely candidate, while proteins from CYB5 family still cannot be ruled out.
Bonkowski et al., Nature reviews. Molecular cell biology 17, 679-690 (2016); Orr et al., Antioxidants & redox signaling 19, 788-803 (2013). It quite possible, that NAD(P)H oxidation catalyzed by N2N1 is performed by NADH:cytochrome b5 reductases (CYB5 . . . ) or NAD(P)H:quinone oxidoreductase (NQO1) reductase (FIG. 3C). The inventors found by RNA-seq analysis that fourteen genes from CYB5 family were expressed in normal fibroblast. NQO1 was also detected at the high level of expression. These reductases connect aerobic metabolism with aging by directed electron flow from NAD(P)H to oxygen, cytochrome C, and peroxide. Jimenez-Hidalgo et al., Aging cell 8, 140-151 (2009). […]

In the case of `CO[C@H]1C[C@@H]2CC[C@@H](C)[C@@](O)(O2)C(=O)C(=O)N2CCCC[C@H]2C(=O)O[C@H]([C@H](C)C[C@@H]2CC[C@@H](O)[C@H](OC)C2)CC(=O)[C@H](C)/C=C(\C)[C@@H](O)[C@@H](OC)C(=O)[C@H](C)C[C@H](C)/C=C/C=C/C=C/1C` [Rapamycin], the water solubility result in series [1] is “poor”. With `C=C(C)[C@H]1Cc2c(ccc3c2O[C@@H]2COc4cc(OC)c(OC)cc4[C@@H]2C3=O)O1` [rotenone, reference compound], in series [2], the “suppression of enzymatic reduction of cytochrome c catalyzed by N2N1” value is listed as “did not suppress”. antimycin A [reference compound]: the “suppression of enzymatic reduction of cytochrome c catalyzed by N2N1” value in series [2] is “did not suppress”.
